This note sets out measurements from PubChem BioAssay (NCI).

Holding throughout (assay): growth of human tumour cells (NCI), 48 h
Experiment [1] relates to NCI-H23 lung.
Experiment [2] has as its system MCF7 breast.
The test system of experiment [3] is CCRF-CEM leukemia.
Experiment [4] concerns EKVX NSCLC.
Experiment [5] relates to M14 melanoma.
Experiment [6] relates to UO-31 renal.
Experiment [7] deals with MDA-MB-231 breast.
The subject of experiment [8] is SK-MEL-5 melanoma.
The test system of experiment [9] is SF-295 CNS.
In experiment [10] the test system is SK-MEL-2 melanoma.
Experiment [11] relates to HCT-15 colon.
Experiment [12] relates to RPMI-8226 leukemia.
The subject of experiment [13] is COLO 205 colon.
Experiment [14] concerns NCI-H460 lung.
Experiment [15] deals with A549 NSCLC.
For experiment [16], the system named is CAKI-1 renal.
Experiment [17] has as its system KM12 colon.
The test system of experiment [18] is OVCAR-5 ovarian.
For experiment [19], the system named is BT-549 breast.
Experiment [20] relates to OVCAR-3 ovarian.

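48-hour exposure; five concentrations; linearly interpolated endpoints. TGI: concentration producing complete growth inhibition.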 Where only a bound is given, the exact number is not on record here.

Consider `O=C(/C=C/c1ccsc1)c1ccc(Cl)s1`, for which the TGI in [1] was above 100 µM; in experiment [2] it was above 100 µM; in experiment [3], 63.9 µM; in experiment [4], above 100 µM; in [5] it was above 100 µM; in experiment [6] it was above 100 µM. Further, the TGI in experiment [7] is above 100 µM; in experiment [8] it was above 100 µM; in [9], above 100 µM; in experiment [10] it was above 100 µM; in [11] it was above 100 µM; in [12], 45.5 µM. In addition, the TGI in experiment [13] is above 100 µM; in experiment [14], above 100 µM; in experiment [15], above 100 µM; in experiment [16] it was above 100 µM; in [17], 35.9 µM.
Turning to `CNC(=O)C(NC(=O)[C@H](CC(C)C)NC(=O)[C@@H](S)CCN1C(=O)N(C)C(C)(C)C1=O)C(C)(C)C` (some centres not stated), the TGI in [1], in [2], in experiment [4], in experiment [5], in experiment [6] and in [8] was above 100 µM each time. Further, the TGI in experiment [18], in experiment [9], in [19], in experiment [10], in [11] and in experiment [12] was above 100 µM in each case. Besides, the TGI in experiment [14], in experiment [15], in experiment [16] and in experiment [17] was above 100 µM throughout.
For `COc1cc(C(=O)OC2CC(C)=CC[C@@]3(C)CC[C@](O)(C(C)C)C23)ccc1O` (some centres not stated), the TGI in [1] was found to be 32.6 µM; in experiment [2], 28.9 µM; in experiment [3], 69 µM; in [4], 34.6 µM; in experiment [5], 33.1 µM; in experiment [6], 30.4 µM. For the same molecule, the TGI in experiment [7] stood at 30.5 µM; in experiment [8], 32.8 µM; in [18] it was 32.6 µM; in [9], 51.9 µM; in experiment [10], 33.2 µM; in experiment [11] it was 35.3 µM. Moreover, the TGI is 53.1 µM in experiment [12]; 39 µM in [13]; 32.5 µM in experiment [14]; 35.5 µM in experiment [20]; 27.7 µM in [15]; 30.4 µM in experiment [16]. The same molecule displayed a TGI in experiment [17] of 29.9 µM.
`CN1CCN(c2ccc3nc(-c4ccc5nc(-c6ccc(N(C)CCCl)cc6)[nH]c5c4)[nH]c3c2)CC1`: the TGI in [1] was found to be 7.4 µM; in experiment [2], 0.56 µM; in experiment [3], 0.647 µM; in [5], 3.42 µM; in [6], 33.8 µM; in experiment [7], 22.3 µM. For the same molecule, the TGI in experiment [8] stood at 0.517 µM; in experiment [18] it was 12.4 µM; in experiment [9] it was 11.2 µM; in experiment [10] it was 0.465 µM; in [11], 26.1 µM; in experiment [12], 16.5 µM. Besides, the TGI turned out to be 0.341 µM in experiment [13]; 5.14 µM in experiment [14]; 10.1 µM in experiment [15]; 17.1 µM in experiment [16]; 2.31 µM in [17].
Regarding `CC(C(O)c1ccccc1)[N+](=O)[O-]` (configuration not stated), the TGI in experiment [1] was above 100 µM; in experiment [2], 40.1 µM; in [3], above 100 µM; in experiment [4], above 100 µM; in experiment [5], 72 µM; in experiment [6], 20.6 µM. In addition, the TGI in [7] was determined as 59.2 µM; in experiment [8], 39.1 µM; in experiment [18] it was 65.6 µM; in experiment [9] it was 61.4 µM; in [10], 39 µM; in experiment [11], 43.4 µM. The TGI in experiment [12] is 47.5 µM; in experiment [13], 80 µM; in [14], above 100 µM; in experiment [20] it was 17.3 µM; in experiment [15], 40 µM; in experiment [16], 30.6 µM. The molecule further returned a TGI in [17] of 50.6 µM.
In the case of `CCOC(=O)/C(=C\NC#N)c1nc2ccccc2[nH]1`, the TGI was above 100 µM in experiment [1]; above 100 µM in experiment [2]; above 100 µM in experiment [4]; above 100 µM in [5]; 6.28 µM in experiment [6]; above 100 µM in [8]. In addition, the TGI in [18], in experiment [9], in [19], in experiment [11], in experiment [12] and in experiment [13] was above 100 µM throughout. Moreover, the TGI in experiment [14], in experiment [20], in experiment [15], in experiment [16] and in experiment [17] was above 100 µM in each case.
Consider `Cc1noc(C)c1N=Nc1ccc2nonc2c1N`, for which the TGI in experiment [1] is above 100 µM; in experiment [2], above 100 µM; in experiment [3] it was above 100 µM; in experiment [4] it was 9.77 µM; in [5], above 100 µM; in experiment [6], above 100 µM. In addition, the TGI in experiment [7], in [8], in experiment [18], in experiment [9], in [10] and in experiment [11] was above 100 µM in each case. The TGI in experiment [12], in experiment [13], in experiment [14], in experiment [20], in experiment [15] and in experiment [16] was above 100 µM in each case. In addition, in [17], the TGI is above 100 µM.
Regarding `CC(=O)O[C@@H]1CC2[C@@H](CCC3Cc4nc5c(nc4C[C@@]32C)CC2CC[C@@H]3C(CC[C@@]4(C)C3CC[C@@H]4C(C)CCCC(C)C)[C@@]2(C)C5)C2C[C@@H]3OC4(CCC(C)CO4)C(C)[C@@H]3[C@]21C` (some centres not stated), the TGI in experiment [1], in [2], in [3], in experiment [4], in experiment [5] and in experiment [7] was above 100 µM each time. The TGI in experiment [8], in [18], in experiment [9], in experiment [19], in experiment [11] and in [12] was above 100 µM in each case. Also, the TGI in experiment [13], in [14], in experiment [20], in [15] and in experiment [17] was above 100 µM each time.
As to `COc1ccc(CCNC(=S)/N=C\C2=C(O)c3ccccc3C2=O)cc1OC`, the TGI in experiment [1], in experiment [2], in [3], in experiment [4], in [5] and in experiment [6] was above 100 µM in each case. Further, the TGI in experiment [7], in [8], in experiment [18], in [9], in experiment [10] and in [11] was above 100 µM throughout. For the same molecule, the TGI in [12] is above 100 µM; in experiment [13] it was above 100 µM; in experiment [20], 0.746 µM; in [15], above 100 µM; in experiment [16] it was above 100 µM; in [17] it was above 100 µM.
Consider `CCCCCCCCCCOC1C(C(C)OCCCN(C)C)OC2OC3(CCCCC3)OC21` (configuration not stated), for which the TGI in experiment [1] is 23.8 µM; in experiment [2] it was 42.8 µM; in experiment [3], 25.4 µM; in experiment [4], 33 µM; in experiment [5] it was 10.2 µM; in [6], 31.7 µM. For the same molecule, the TGI in [7] was 29.8 µM; in [8], 29.5 µM; in experiment [18], 25.2 µM; in experiment [9], 32.7 µM; in experiment [10], 30.4 µM; in [11], 17.5 µM. In addition, the TGI came to 17.4 µM in [12]; 14.6 µM in experiment [13]; 22.7 µM in experiment [14]; 29.1 µM in experiment [20]; 30.8 µM in experiment [15]; 28 µM in [16].
For `O=C(O)C1(CC(CCCN2CCCCC2)c2ccccc2)CCCC1` (configuration not stated), the TGI in experiment [1], in experiment [2], in experiment [3], in experiment [4], in experiment [5] and in [6] was above 100 µM throughout. In addition, the TGI in experiment [7], in [8], in experiment [18], in [9], in experiment [10] and in experiment [11] was above 100 µM throughout. Moreover, the TGI in experiment [12], in experiment [13], in experiment [14], in experiment [20], in experiment [15] and in [16] was above 100 µM each time. The TGI in experiment [17] was above 100 µM.
For the molecule `O=C(O)C1C2CCC(C2)C1c1ccccc1` (configuration not stated), the TGI in experiment [1], in experiment [2], in [3], in experiment [4], in experiment [5] and in [6] was above 100 µM throughout. For the same molecule, the TGI in [7], in [8], in experiment [18], in [9], in [10] and in experiment [11] was above 100 µM each time. Further, the TGI in experiment [12], in experiment [13], in experiment [14], in experiment [20], in [15] and in experiment [16] was above 100 µM each time. Further, the TGI in experiment [17] was above 100 µM.
In the case of `CC1(C)N=C(/C(C#N)=[N+](/[O-])C(=O)c2ccccc2)C(C)(C)N1O`, the TGI in experiment [1], in experiment [2], in [3], in [4], in [5] and in [6] was above 100 µM in each case. The TGI in experiment [7], in [8], in experiment [18], in experiment [9], in [10] and in [11] was above 100 µM throughout. The TGI in [12], in [13], in experiment [14], in experiment [20], in experiment [15] and in experiment [16] was above 100 µM each time. The molecule also came in with a TGI in experiment [17] above 100 µM.
As to `CCN(CC)CCNC(=O)c1cc2cc(NC(=O)c3cc4cc(NC(=O)c5cc6cc([N+](=O)[O-])ccc6[nH]5)ccc4[nH]3)ccc2[nH]1`, the TGI in experiment [1] is above 100 µM; in experiment [3], 67.3 µM; in experiment [4] it was above 100 µM; in experiment [5], above 100 µM; in [6] it was above 100 µM; in experiment [7] it was above 100 µM. Also, the TGI in [8], in experiment [18], in [9], in experiment [19], in [10] and in experiment [11] was above 100 µM each time. The TGI in experiment [12], in experiment [13], in experiment [14], in experiment [20], in [15] and in [16] was above 100 µM in each case. In experiment [17], this molecule displayed a TGI above 100 µM.
On to `O=S(=O)(Nc1nc(-c2cc(O)c(O)c(O)c2)cs1)c1ccc(Cl)cc1Cl`, for which the TGI stood at 74.1 µM in experiment [1]; 36.1 µM in experiment [2]; 41.5 µM in experiment [3]; 33.5 µM in experiment [4]; 50.6 µM in experiment [5]; 46.5 µM in experiment [6]. The TGI in experiment [7] is 44.9 µM; in experiment [8], 34.2 µM; in experiment [18] it was 33.4 µM; in [9], 34.4 µM; in [10], above 100 µM; in experiment [11], 33 µM. Moreover, the TGI in [12] was 40.8 µM; in experiment [13], 50.2 µM; in experiment [14], 38.6 µM; in experiment [20], 37.6 µM; in experiment [15], above 100 µM; in experiment [16] it was 35.5 µM. The TGI in experiment [17] is 31.1 µM.
